Reference: patent US20200338045A1, “ISOINDOLINE COMPOSITIONS AND METHODS FOR TREATING NEURODEGENERATIVE DISEASE” (priority 2017, published 2020)
Like-named read-outs stand apart in the source and are kept apart here. Marks after values point to notes of the source that are not given here.

Test: Phase 1 multiple ascending dose (MAD) plasma pharmacokinetics
Format: in vivo, human
Conditions: for Cmax / AUC(0-t) / Tmax / half-life: human, plasma, oral; for AUC(0-t): read-out: AUC0-24h (mean)
Method: In Part B, healthy young subjects in each cohort received the same dose once daily for 14 days after overnight fasting. Cohort dosing started at 280 mg, followed by 560 mg and 840 mg in subsequent cohorts. In each cohort, eight subjects received drug and two received placebo. A fourth cohort of healthy elderly subjects (≥65 years old) received a 560 mg dose vs. placebo daily for 14 days (seven active, two placebo).
In Part A, blood draws for assessment of PK parameters occurred pre-dose and at 15, 30, 45, 60, and 90 minutes post dose as well as at 2, 3, 4, 8, 12, 24, 36, and 48 hours post dose. […] In Part B, blood samples for plasma PK analysis were taken on Day 1 at pre-dose and at 2 hours post-dose, on Day 3 at pre-dose and at 15, 30 and 45 minutes and 1, 2, 3, 4, 8, 12 and 24 hours post-dose, on Days 4, 6, 8 and 10 at pre-dose and at 1.5 hours post-dose and following the final dose on Day 14 at pre-dose and 15, 30 and 45 minutes and 1, 2, 4, 8, 12, 24, 36 and 48 hours post-dose.
This was assessed by analysis of variance (ANOVA) of log-transformed Cmax, AUC0-24, AUC0-48, and/or AUC0-inf, using a model with factors for treatment (fed status or age [young vs. elderly] status) and subject within sequence. Treatment mean differences and 90% confidence intervals of the log transformed PK parameters were back-transformed, to present the geometric least squares means ratios and 90% confidence limits.

[1] = 560 mg daily, Day 14 (steady state)
[2] = 560 mg daily, day 3, geometric least-squares mean
[3] = 280 mg, 280 mg QD, Day 3, age up to 64 years (n = 8)
[4] = 280 mg, 280 mg QD, Day 14, age up to 64 years (n = 8)
[5] = 560 mg, 560 mg QD, Day 3, age at least 65 years (n = 7)
[6] = 560 mg, 560 mg QD, Day 3, age up to 64 years (n = 8)
[7] = 560 mg, 560 mg QD, Day 14, age at least 65 years (n = 7)
[8] = 560 mg, 560 mg QD, Day 14, age up to 64 years (n = 8)
[9] = 840 mg, 840 mg QD, Day 3, age up to 64 years (n = 7)
[10] = 840 mg, 840 mg QD, Day 14, age up to 64 years (n = 7)

SMILES: CC(C)(C)Oc1cc(CCC(C)(C)N2Cc3ccc(S(C)(=O)=O)cc3C2)ccc1O [CT1812]
- CLss/F (mean) (560 mg QD, Day 14, age up to 64 years (n = 8), unit assumed): 296 L/h
- AUC0-24h, aged cohort vs younger subjects [1]: 1.5 times
- Cmax, aged cohort vs younger subjects [1]: 1.6 times
- AUC0-24h, aged cohort vs subjects under 64 years [2]: ~1.34 times
- Cmax, aged cohort vs subjects under 64 years [2]: approximately 1.7 times
- CLss/F (mean) (840 mg QD, Day 14, age up to 64 years, n = 7): 212^‡‡
- Cmax and AUC / plasma concentration vs dose (MAD 280 to 840 mg): slightly greater than dose proportionally
- accumulation with repeat dosing (Q.D. over 14 days): minimal accumulation
- Cmax [3]: 238 ng/mL
- AUC(0-t) [3]: 851 ng·h/mL
- Tmax (280 mg, 280 mg QD, Day 3, age up to 64 years (n = 8), read-out: Tmax (median)): 1.5 h
- half-life (280 mg, 280 mg QD, Day 3, age up to 64 years, n = 6, over max 24 hours post dose, read-out: t1/2 (mean) (converted)): 538 min
- Cmax [4]: 431 ng/mL
- AUC(0-t) [4]: 1060 ng·h/mL
- Tmax (280 mg, 280 mg QD, Day 14, age up to 64 years (n = 8), read-out: Tmax (median)): 0.88 h
- half-life (280 mg, 280 mg QD, Day 14, age up to 64 years (n = 8), read-out: t1/2 (mean) (converted)): 720 min
- Cmax [5]: 567 ng/mL
- AUC(0-t) [5]: 3330 ng·h/mL
- Tmax (560 mg, 560 mg QD, Day 3, age at least 65 years (n = 7), read-out: Tmax (median)): 2 h
- half-life (560 mg, 560 mg QD, Day 3, age at least 65 years, n = 4, over max 24 hours post dose, read-out: t1/2 (mean) (converted)): 530 min
- Cmax [6]: 407 ng/mL
- AUC(0-t) [6]: 1940 ng·h/mL
- Tmax (560 mg, 560 mg QD, Day 3, age up to 64 years (n = 8), read-out: Tmax (median)): 2 h
- half-life (560 mg, 560 mg QD, Day 3, age up to 64 years, n = 2, over max 24 hours post dose, read-out: t1/2 (mean) (converted)): 514 min
- Cmax [7]: 853 ng/mL
- AUC(0-t) [7]: 4450 ng·h/mL
- Tmax (560 mg, 560 mg QD, Day 14, age at least 65 years (n = 7), read-out: Tmax (median)): 1 h
- half-life (560 mg, 560 mg QD, Day 14, age at least 65 years (n = 7), read-out: t1/2 (mean) (converted)): 768 min
- Cmax [8]: 651 ng/mL
- AUC(0-t) [8]: 2810 ng·h/mL
- Tmax (560 mg, 560 mg QD, Day 14, age up to 64 years (n = 8), read-out: Tmax (median)): 2 h
- half-life (560 mg, 560 mg QD, Day 14, age up to 64 years (n = 8), read-out: t1/2 (mean) (converted)): 738 min
- Cmax [9]: 813 ng/mL
- AUC(0-t) [9]: 3610 ng·h/mL
- Tmax (840 mg, 840 mg QD, Day 3, age up to 64 years (n = 7), read-out: Tmax (median)): 2 h
- half-life (840 mg, 840 mg QD, Day 3, age up to 64 years, n = 5, over max 24 hours post dose, read-out: t1/2 (mean) (converted)): 563 min
- Cmax [10]: 991 ng/mL
- AUC(0-t) [10]: 4990 ng·h/mL
- Tmax (840 mg, 840 mg QD, Day 14, age up to 64 years (n = 7), read-out: Tmax (median)): 2 h
- half-life (840 mg, 840 mg QD, Day 14, age up to 64 years, n = 6, read-out: t1/2 (mean) (converted)): 536 min
- half-life (MAD, read-out: average terminal half-life at steady state (converted)): ~720 min
- Tmax (part B (MAD), 280-840 mg, read-out: Tmax in plasma, range over doses): 0.88 to 2 h
